{
  "source": "patent US9850293B2",
  "about": "“Targeting trastuzumab-resistant HER2+ breast cancer with a HER3-targeting nanoparticle” (priority 2014, dated 2017)",
  "key": {"[1]": {"test_system": "human cardiosphere-derived cells (CDCs)", "assay": "Human CDC viability", "details": "escalating concentrations, 48 hour exposure", "experimental": "Control groups received saline or HerPBK10 at equivalent concentration to HerMn. Treatments began at ˜200 mm^3 average tumor volume. Tumor volumes were measured before (day 1), during (day 3), and after (days 8, 15, and 22) injections of reagents. N=8-10 tumors/group. *p<0.05 (one-way ANOVA). […] N=3 per conc, from 3 separate experiments.\nTo assess translatability, the viability of human cardiosphere-derived cells (CDCs) in the presence of HerGa and/or HerMn was examined."}, "[2]": {"test_system": "HER3 on 4T1 mouse mammary tumor cells", "assay": "Binding of HerPBK10 to mouse mammary tumor cells", "text": "(A) is an amino acid sequence alignment of domains I-II (heregulin-binding domain) of human (SEQ ID NO:13) and mouse HER3 (SEQ ID NO:14). (B) compares relative HER3 levels on different cell lines, detected by ELISA (without permeabilization) using an anti-HER3 antibody that cross-reacts with both human and mouse HER3 (1B2E; Cell Signaling Technologies). […] N=3. *, p<0.05 compared to HerPBK10 alone.\nMouse 4T1 cells, obtained from a BALB/c mouse mammary tumor, are triple-negative and have been used as a syngeneic TNBC model in BALB/c mice. […] The receptor-specific binding of HerPBK10 to mouse HER3 reflects the high level of amino acid sequence identity between mouse and human HER3: 91% identity for the entire protein and 94% in the heregulin-binding region (extracellular domains I and II) (FIG. 32-A). […] Importantly, human BT-549 cells, which are also derived from a TNBC, display elevated HER3 on the cell surface (FIG. 32-B) and provide an additional TNBC cell line to target."}, "[3]": {"test_system": "primary tumor cells from a surgical specimen of a HER2+ patient", "assay": "Binding to primary human tumor cells", "details": "elevated HER3, very low HER2", "experimental": "(§1) N=3. *, p<0.05 compared to parental. […] N=3. *, p<0.05 compared to parental.\n(§2) Parental lines were exposed to Tz for 24 hours and then measured cell surface HER3 levels in comparison to non-treated parental cells. […] As a means of evaluating whether the nanoparticles described herein are capable of recognizing HER3 on human tissue, breast tumor tissue was obtained from a surgical specimen of a HER2+ patient and examined whether HerPBK10 could bind this tissue via HER3."}, "[4]": {"test_system": "HER2+ tumors (MDA-MB-435)", "assay": "In vivo tumor toxicity (tumor growth)", "design": "species or system mouse", "details": "0.004 mg/kg with respect to Dox, daily tail vein injections for 7 days"}, "[5]": {"test_system": "HER3 on parental cell lines (BT474 and SKBR3)", "assay": "Tz pre-treatment: cell surface HER3 and HerPBK10 binding", "format": "cell-based, human", "details": "0.5 mg/mL Tz for 24 hours", "experimental": "N=3. […] N=3. […] N=3. […] N=3. […] N=3. […] N=3.\nas §1\nThe parental and resistant cell lines were pretreated with Tz for 4 or 24 hours before HerDox treatment.\nas §2"}, "[6]": {"target": "T1, HER3 (human ErbB3 extracellular domain) (Homo sapiens, UniProt P21860)", "T1 construct": "immobilized peptide containing the extracellular domain of human HER3; purchased Prospec", "assay": "ELISA of HerPBK10 binding to immobilized HER3", "text": "(§3) Un, no HerPBK10. […] HerPBK10 binding to HER3 is not inhibited by patient serum.\n(§4) Binding was also not inhibited by a HER4 peptide or betacellulin (which blocks HER4) (FIG. 26-B)."}, "[7]": {"assay": "Neutralizing antibody formation after repeat dosing", "format": "in vivo, mouse", "details": "repeat dosing at therapeutic and 10-fold higher levels, immunocompetent mice", "text": "Therefore, receptor binding is not inhibited by patient sera."}, "MDA-MB-435 (HER2+)": {"test_system": "MDA-MB-435 (HER2+)", "assay": "Targeted toxicity, cell survival by MTT assay", "format": "cell-based, human", "details": "Dox 0.5 μM; HerPBK10 0.1 μM; day 3", "experimental": "(§5) FIG. 7 illustrates targeted toxicity. […] Cell titer was determined by metabolic (i.e. MTT) assay. FIG. 7 upper panel illustrates the effect of HerDox on MDA-MB-231 (HER2−) and MDA-MB-435 (HER2+) cell survival. Relative surviving cell numbers are represented as a % of corresponding untreated cells. […] Relative survival (as % of untreated cells) is shown for Day 3 of treatment.\nFIG. 8 illustrates receptor specificity. MDA-MB-435 (HER2+) cells were incubated with free ligand (eHRG) at 10× molar excess of HerDox for one hour at 4° C. Media was aspirated to remove free eHRG and fresh media containing HerDox (0.5 μM) was added to cells. Cell survival was measured by MTT assay and represented as a % of relative untreated cell numbers.\n(§6) N=3. […] Bar, about 4 μm. […] (E) compares HerDox and Dox on off-target tissue. […] Green fluorescence in nuclei indicates apoptosis (positive TUNEL stain).\n(§7) By three days, HerDox reduced HER2+ cell numbers by over 75% whereas HER2− cell survival was unaffected (FIG. 7). […] These findings emphasize the importance of targeting by showing that the untargeted drug affects nontarget (i.e. HER2−) cells. […] To test receptor targeting, the inventors used free heregulin ligand (Her or eHRG) as a competitive inhibitor. […] As a final in vitro challenge, the inventors tested whether HerDox induces toxicity specifically to HER2+ cells in a mixed culture of HER2+ and HER2− breast cancer cells. To do this, the inventors produced a HER2− cell line tagged with green fluorescent protein (GFP) for cell identification in the mixed culture (FIG. 9-A). […] Altogether, these findings indicate that HerDox has the capacity to preferentially target toxicity to HER2+ cells. […] In serum-containing media, no such loss from HerDox is detectable. […] Co-migration of HerPBK10 bands further verified that the conjugates remained intact in the cell media."}, "HER2+ tumor": {"test_system": "HER2+ tumor", "assay": "Biodistribution of labeled HerPBK10, Tz and BSA", "format": "in vivo, mouse", "details": "tail vein, four hours after injection", "experimental": "(§8) (A) compares biodistribution and intracellular trafficking of HerPBK10 and Tz.\nFluorescently-labeled HerPBK10 was prepared to assess its bio-distribution and cell uptake in comparison to labeled Tz. Equivalent doses of each reagent were injected into the tail veins of HER2+ tumor bearing mice. Tissues were harvested at four hours after injection for imaging. Both reagents were compared to a labeled non-targeted protein, BSA."}, "MDA-MB-435 cells": {"test_system": "MDA-MB-435 cells", "assay": "HerPBK10 binding to cells in human serum (ELISA)", "details": "1.2 μg/well, sera of 5 HER2+ patients and age-matched controls", "experimental": "FIG. 16 illustrates HerPBK10 binding to MDA-MB-435 cells in human serum from HER2+ or HER2− breast cancer patients. Cells were treated with HerPBK10 (1.2 μg/well) in media containing human serum from each of 5 HER2+ breast cancer patients or age matched HER2− controls, both obtained pre-chemotherapy treatment. Cells were processed for ELISA using an antibody directed at HerPBK10. Control (C) wells receiving HerPBK10 in media containing bovine serum without or with 100× molar excess competitive ligand inhibitor (+Her) are indicated by open bars. Patient sera were provided by the WCRI tissue bank at Cedars-Sinai Medical Center. N=3 wells per treatment.\nTo determine whether HerPBK10 competes with circulating ligand that may be present in serum, the inventors tested HerPBK10 binding to HER2+ breast cancer cells in human serum obtained from HER2+ patients. The Women's Cancer Research Institute at Cedars-Sinai occasionally acquires limited quantities of patient serum, of which sera from HER2+ patients comprises an even smaller minority. […] Here, the inventors replaced the bovine serum in the routine culturing media with the human serum obtained from the acquired patient samples to assess whether the human serum, especially from HER2+ patients, inhibits cell binding. […]"}, "HER2+ MDA-MB-435 cells": {"test_system": "HER2+ MDA-MB-435 cells", "assay": "Cell uptake (fluorescence confocal microscopy)", "format": "cell-based, human", "details": "after cell surface clustering", "experimental": "as §8\nThe uptake in HER2+ MDA-MB-435 cells were also evaluated."}, "HER2+ cells": {"test_system": "HER2+ cells", "assay": "ELISA of HerPBK10 binding to HER2+ cells with competitive inhibitors", "text": "as §3, §4"}, "MDA-MB-231 (HER2−)": {"test_system": "MDA-MB-231 (HER2−)", "assay": "Targeted toxicity, cell survival by MTT assay", "format": "cell-based, human", "details": "0.5 μM with respect to Dox; HerPBK10 0.1 μM; day 3", "experimental": "as §5, §6, §7"}},
  "note": "“Also recorded” adds a separate entry of the source.",
  "data": [
    {"substance": "HerPBK10: receptor binding domain of heregulin fused to adenovirus penton base protein modified by a C-terminal decalysine", "values": [
      {"measurement": "effect on CDC viability", "setting": "[1]", "value": "no detectable effect on CDC viability"},
      {"measurement": "binding to 4T1 cells with human HER3 peptide", "setting": "[2]", "value": "competitively inhibited by human HER3 peptide"},
      {"measurement": "recognition of HER3 on 4T1 cells", "setting": "[2]", "value": "is recognized by HerPBK10"},
      {"measurement": "binding to disaggregated patient tumor cells", "setting": "[3]", "value": "exhibiting greater binding than Tz; also recorded: showing greater binding than Tz"},
      {"measurement": "effect on tumor growth", "setting": "[4]", "value": "had no effect"},
      {"measurement": "HerPBK10 binding to Tz pre-treated parental cells", "setting": "[5]", "value": "augments HerPBK10 binding; also recorded: proportionately increased"},
      {"measurement": "binding to immobilized HER3 after pre-adsorption with free HER3 peptide", "setting": "[6]", "value": "inhibited by pre-adsorption of HerPBK10 with free HER3 peptide"},
      {"measurement": "binding to immobilized HER3 peptide", "setting": "[6]", "value": "binds to an immobilized peptide containing the extracellular domain of human HER3"},
      {"measurement": "neutralizing antibody formation against the protein", "setting": "[7]", "value": "did not yield detectable neutralizing antibody formation"},
      {"measurement": "effect on HER2+ cell survival", "setting": "MDA-MB-435 (HER2+)", "value": "had no effect on either cell line; also recorded: does not induce cell death"},
      {"measurement": "delivery to the heart, spleen, and muscle", "setting": "HER2+ tumor", "value": "nearly absent delivery"},
      {"measurement": "lung delivery", "setting": "HER2+ tumor", "value": "no lung delivery"},
      {"measurement": "tumor accumulation", "setting": "HER2+ tumor", "value": "equivalent levels of tumor accumulation"},
      {"measurement": "cell binding in serum from HER2+ patients, HER2− patients or bovine serum", "setting": "MDA-MB-435 cells", "value": "no significant differences; also recorded: did not prevent HerPBK10 binding"},
      {"measurement": "time to significant endocytosis", "setting": "HER2+ MDA-MB-435 cells", "value": "≤ 45", "unit": "min"},
      {"measurement": "binding to HER2+ cells with pertuzumab (Pz)", "setting": "HER2+ cells", "value": "did not prevent HerPBK10 binding"},
      {"measurement": "binding to HER2+ cells after pre-adsorption with free HER3 peptide", "setting": "HER2+ cells; 1× and 10× molar ratio", "value": "also inhibited HerPBK10 binding"},
      {"measurement": "binding to HER2+ cells with HER4 peptide or betacellulin", "setting": "HER2+ cells; betacellulin 10 μg/mL", "value": "not inhibited"},
      {"measurement": "effect on HER2− cell survival", "setting": "MDA-MB-231 (HER2−)", "value": "had no effect on either cell line"}
    ]}
  ]
}
